{"source": "patent EP1222921B1", "about": "“Pharmaceutical compositions of tizoxanide and/or nitazoxanide” (Romark Laboratories, L.C., priority 1997, dated 1998)", "key": {"C. parvum oocysts": {"tested_on": "C. parvum oocysts", "assay": "Intact C. parvum oocyst assay (Example II), immunofluorescence", "assay_type": "cell-based, Cryptosporidium parvum", "procedure": "Nitazoxanide was dissolved in sterile dimethylsulfoxide (DMSO) and tested against intact C. parvum oocysts infected cell monolayers at concentrations of 100 µg/ml, 10 µg/ml/l µg/ml and 0.1 µg/ml. A second trail was performed which tested nitazoxanide at the additional concentrations of 20, 2, 0.2 and 0.02 µg/ml. These concentrations were achieved by serial dilutions with complete DMEM medium to yield a final DMSO concentration of 0.5%. The medium control also contacted 0.5% DMSO.\nThe experiment used a cell culture of MDBKF5D2 Cells grown in 7 mm chambers, and as Cryptosporidium parvum: GCH1 oocysts, 5 X 10^4 per well, and was conducted to compare paromomycin (positive control) against nitazoxanide (experimental drug). Materials included Immune Anti-Cryptosporidium parvum Sporozoite Rabbit Serum (0.1%) and Fluorescein-Conjugated Goat Anti-Rabbit Antibody (1%).\n5 x 104 C. parvum oocysts per well were incubated in nitazoxanide (100, 20, 10, 2, 1, 0.2, 0.1 and 0.02 µg/ml) at 37°C (8% CO2) on confluent MDBKF5D2 cell monolayers. The level of infection in each well was determined and analyzed by an immunofluorescence assay at 24 to 48 hours. Percent Inhibition was calculated by subtracting the mean parasite count/10 field in the drug test wells from the mean parasite count/10 fields in the medium control (no drug), dividing by the medium control count, and then multiplying by 100. (Medium control count - Drug test count)/(Medium control count)x 100 [formula]"}, "mycobacteria": {"tested_on": "mycobacteria", "assay": "MTS colorimetric assay of mycobacteria growing in a liquid broth", "assay_type": "cell-based", "procedure": "Fig. 7 is a chart based upon the assay for nitazoxanide effectiveness against mycobacteria growing in a liquid broth. We used the MTS colorimetric assay which permits us to determine growth in 4 hours rather than 3 weeks as with the agar counting method."}, "[1]": {"tested_on": "immature (4-week/old) F. gigantica", "assay": "Experimentally infected rabbits, immature flukes", "assay_type": "in vivo, Fasciola gigantica", "procedure": "Nitazoxanide was tested against immature and mature Fasciola gigantica in experimentally infected rabbits. Fasciola gigantica encysted metacercariae (EMC) were collected on cellophane sheet after 28-35 days from infection of L. calludi snails by Fasciola gigantica miracidium using the technique described by […] snails were exposed daily to artificial light, for 30 minutes, in clean dechlorinated tap water. The resulting encysted […]) were preserved at 4°C in a refrigerator for 5 to 8 days under the surface of water until they were used to infect experimental animals. Forty (40) Boscat rabbits, weighting 1.5 to 2 kg each, were included in the study and allocated to two treatment groups of 20 animals. Animals from Group 1 were orally infected with 35-40 encysted […] wrapped in a leaf of lettuce and pushed on the root of the tongue of the animals. The mouths of the animals were held closed by hand until the encysted metacercariae were swallowed. These Group 1 animals were used to test the efficacy of nitazoxanide against immature stages (4-5 weeks old) of Fasciola […]. Ten animals from Group 1 received 35 mg of nitazoxanide, morning and evening, for 7 consecutive days 4 weeks after their infection at the immature stage of the parasite cycle. The ten remaining animals in Group 1 were kept as untreated controls. All animals were fed with dry ration until the end of the experiment. Seven days after administration of the last dose of nitazoxanide, all rabbits from each group were sacrificed. The surface of the liver was examined for the presence of necrotic migrating furrows especially at the immature stage of the parasite cycle. These necrotic areas were examined using two surgical needles in order to extract the juvenile migrating flukes according to the technique described by El-Bahy. The livers were sliced in small pieces especially around the migrating furrows and macerated under a microscope in order to extract the existing flukes. The abdominal cavity and the visceral surfaces were washed with warm water. The water was then collected, sieved and examined for identification of juvenile flukes. All the collected parasites as well as parts of them were counted in both treated and untreated animal in both Groups 1 and 2. […] The efficacy of nitazoxanide was calculated by using the formula indicated below: % efficacy(a - b)/(a)x 100 [formula] Where: • a = the number of flukes recovered from feces in the control animals • b = the number of flukes recovered from feces in the treated animals."}, "[2]": {"tested_on": "early mature (10-week/old) F. gigantica", "assay": "Experimentally infected rabbits, early mature flukes", "assay_type": "in vivo, Fasciola gigantica", "procedure": "Nitazoxanide was tested against immature and mature Fasciola gigantica in experimentally infected rabbits. Fasciola gigantica encysted metacercariae (EMC) were collected on cellophane sheet after 28-35 days from infection of L. calludi snails by Fasciola gigantica miracidium using the technique described by […] snails were exposed daily to artificial light, for 30 minutes, in clean dechlorinated tap water. The resulting encysted […]) were preserved at 4°C in a refrigerator for 5 to 8 days under the surface of water until they were used to infect experimental animals. Forty (40) Boscat rabbits, weighting 1.5 to 2 kg each, were included in the study and allocated to two treatment groups of 20 animals. […] Ten animals from Group 2 received 35 mg of nitazoxanide, morning and evening, for 7 consecutive days 10 weeks after their infection at the mature stage of the parasite. The 10 remaining animals in Group 2 were kept as untreated controls. All animals were fed with dry ration until the end of the experiment. Seven days after administration of the last dose of nitazoxanide, all rabbits from each group were sacrificed. The surface of the liver was examined for the presence of necrotic migrating furrows especially at the immature stage of the parasite cycle. These necrotic areas were examined using two surgical needles in order to extract the juvenile migrating flukes according to the technique described by El-Bahy. The livers were sliced in small pieces especially around the migrating furrows and macerated under a microscope in order to extract the existing flukes. The abdominal cavity and the visceral surfaces were washed with warm water. The water was then collected, sieved and examined for identification of juvenile flukes. All the collected parasites as well as parts of them were counted in both treated and untreated animal in both Groups 1 and 2. […] The efficacy of nitazoxanide was calculated by using the formula indicated below: % efficacy(a - b)/(a)x 100 [formula] Where: • a = the number of flukes recovered from feces in the control animals • b = the number of flukes recovered from feces in the treated animals."}, "S. mansoni": {"tested_on": "S. mansoni", "settings": "posttreatment positive egg-counts; report by Abaza et al.; cited from earlier work"}, "[3]": {"settings": "70 mg/day dose for 7 consecutive days"}, "[4]": {"settings": "individual rabbits No. 1-10 versus untreated control, 35 mg morning and evening for 7 consecutive days"}, "[5]": {"settings": "mean of 10 rabbits, 70 mg/day for 7 consecutive days"}}, "note": "Several values for one entry are separate records, joined by “and”; a condition that tells them apart may be missing. Identical values can stand only once.", "data": [{"smiles": "CC(=O)Oc1ccccc1C(=O)Nc1ncc([N+](=O)[O-])s1", "note": "[Nitazoxanide, 2-(acetolyloxy)-N-(5-nitro 2-thiazoly) benzamide]", "values": [{"measurement": "inhibition at 0.1 µg/mL", "setting": "C. parvum oocysts; Cryptosporidium parvum, Trial 1: 24 hrs, 0.1µg/ml, read-out: Percent Inhibition", "value": 51.8, "unit": "%"}, {"measurement": "inhibition at 1 µg/mL", "setting": "C. parvum oocysts; Cryptosporidium parvum, Trial 1: 24 hrs, 1µg/ml, read-out: Percent Inhibition", "value": 77.2, "unit": "%"}, {"measurement": "inhibition at 10 µg/mL", "setting": "C. parvum oocysts; Cryptosporidium parvum, Trial 1: 24 hrs, 10µg/ml, read-out: Percent Inhibition", "value": 94.4, "unit": "%"}, {"measurement": "inhibition at 0.02 µg/mL", "setting": "C. parvum oocysts; Cryptosporidium parvum, Trial 2: 48 hrs, 0.02µg/ml, read-out: Percent Inhibition", "value": 53.3, "unit": "%"}, {"measurement": "inhibition at 0.2 µg/mL", "setting": "C. parvum oocysts; Cryptosporidium parvum, Trial 2: 48 hrs, 0.2µg/ml, read-out: Percent Inhibition", "value": 54.3, "unit": "%"}, {"measurement": "inhibition at 2 µg/mL", "setting": "C. parvum oocysts; Cryptosporidium parvum, Trial 2: 48 hrs, 2µg/ml, read-out: Percent Inhibition", "value": 94.9, "unit": "%"}, {"measurement": "inhibition at 20 µg/mL", "setting": "C. parvum oocysts; Cryptosporidium parvum, Trial 2: 48 hrs, 20µg/ml, read-out: Percent Inhibition", "value": 96.9, "unit": "%"}, {"measurement": "Mean (+ SD) Parasite Count/10 Fields", "setting": "C. parvum oocysts; Trial 1: 24 hrs, 0.1µg/ml", "value": "474.5(±29.5)"}, {"measurement": "Mean (+ SD) Parasite Count/10 Fields", "setting": "C. parvum oocysts; Trial 1: 24 hrs, 1µg/ml", "value": "224.5(±28.5)"}, {"measurement": "Mean (+ SD) Parasite Count/10 Fields", "setting": "C. parvum oocysts; Trial 1: 24 hrs, 10µg/ml", "value": "55.5(±13.5)"}, {"measurement": "Mean (+ SD) Parasite Count/10 Fields", "setting": "C. parvum oocysts; Trial 2: 48 hrs, 0.02µg/ml", "value": "1041(+191.46)"}, {"measurement": "Mean (+ SD) Parasite Count/10 Fields", "setting": "C. parvum oocysts; Trial 2: 48 hrs, 0.2µg/ml", "value": "1020(+158.48)"}, {"measurement": "Mean (+ SD) Parasite Count/10 Fields", "setting": "C. parvum oocysts; Trial 2: 48 hrs, 2µg/ml", "value": "113.75(+21.36)"}, {"measurement": "Mean (+ SD) Parasite Count/10 Fields", "setting": "C. parvum oocysts; Trial 2: 48 hrs, 20µg/ml", "value": "68.75(+13.77)"}, {"measurement": "effect on continued growth", "setting": "mycobacteria; 3 µg/ml dose added at the 72 hr after culture was initiated", "value": "stops growth for the next 24 hrs and then there is a slow growth afterwards for the next 2 days"}, {"measurement": "effect on continued growth", "setting": "mycobacteria; 50 µg/ml dose added at the 72 hr after culture was initiated", "value": "completely bacteriostatic throughout the 144 hours of the culture"}, {"measurement": "overall efficacy", "setting": "[1]; [3]", "value": "moderately effective"}, {"measurement": "No. of flukes extracted from liver of Treated Rabbits", "setting": "[1]; individual rabbits No. 1-10, 35 mg morning and evening for 7 consecutive days, 4 weeks after infection", "value": "3 (5×) and 4 (4×) and 2"}, {"measurement": "Efficacy %", "setting": "[1]; [4]", "value": "50% (4×) and 40% (3×) and 42% (2×) and 60%"}, {"measurement": "Efficacy %, Mean (means percentage of reduction)", "setting": "[1]; [5]", "value": 46.77, "unit": "%"}, {"measurement": "No. of flukes extracted from liver of Treated Rabbits, Mean", "setting": "[1]; [5]", "value": 3.3}, {"measurement": "percentage of reduction, range", "setting": "[1]; range over 10 rabbits, 70 mg/day for 7 consecutive days", "value": "40-60%"}, {"measurement": "overall efficacy", "setting": "[2]; [3]", "value": "completely effective"}, {"measurement": "No. of flukes extracted from liver of Treated Rabbits", "setting": "[2]; individual rabbits No. 1-10, 35 mg morning and evening for 7 consecutive days, 10 weeks after infection", "value": 0.0}, {"measurement": "Efficacy %", "setting": "[2]; [4]", "value": 100, "unit": "%"}, {"measurement": "Efficacy %, Mean (reduction)", "setting": "[2]; [5]", "value": 100, "unit": "%"}, {"measurement": "No. of flukes extracted from liver of Treated Rabbits, Mean", "setting": "[2]; [5]", "value": 0.0}, {"measurement": "efficacy in patients", "setting": "S. mansoni", "value": "not effective"}]}]}
